# According to patent publication US5672715A, “Herbicidal substituted 3-aryl-pyrazoles” (Monsanto Company, priority 1995, dated 1997):
# Legend:
# Assay type in all cases: in vivo
# [1] = test system: Wild Proso Millet; experiment: pre-emergence herbicide test; settings: 0.25 lb/A, read-out: % plant inhibition
# Method in brief: (§1)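 Pans of compacted topsoil received seeds and then a cover layer treated with test compound from an acetone or water carrier. Plants grew under greenhouse conditions with moisture supplied from below. Observations of % inhibition followed roughly 14 days after treatment.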
# [2] = test system: Seedling Johnsongrass; experiment: pre-emergence herbicide test; settings: 0.25 lb/A; for inhibition at 280.212 g/ha: Sorghum halepense, pre-emergence, read-out: % plant inhibition
# Method in brief: as §1
# [3] = test system: Broadleaf Signalgrass; experiment: pre-emergence herbicide test; settings: Urochloa platyphylla, 0.25 lb/A, read-out: % plant inhibition
# Method in brief: as §1
# [4] = test system: Giant Foxtail; experiment: pre-emergence herbicide test; settings: Setaria faberi, pre-emergence, 0.25 lb/A; read-out: % plant inhibition
# Method in brief: as §1
# [5] = test system: Shattercane; experiment: pre-emergence herbicide test; settings: 0.25 lb/A, read-out: % plant inhibition
# Method in brief: as §1
# [6] = test system: Wheat; experiment: post-emergence herbicide test; settings: Triticum aestivum, post-emergence, read-out: % plant inhibition; for inhibition at 7.95803 g/ha: 0.0071 lb/A; for inhibition at 40.0143 g/ha: 0.0357 lb/A; for inhibition at 200.072 g/ha: 0.1785 lb/A; for inhibition at 1000.92 g/ha: 0.893 lb/A
# Method in brief: (§2)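 Sown pans kept on a greenhouse bench with irrigation or subirrigation until plants reached two to three weeks, then sprayed at 170.3 kPa (10 psig). Spray mix held about 0.4% by volume emulsifier; total volume 1870 L/Ha. Result expressed as percent inhibition.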
# [7] = test system: Soybean; experiment: post-emergence herbicide test; settings: Glycine max, post-emergence, read-out: % plant inhibition; for inhibition at 7.95803 g/ha: 0.0071 lb/A; for inhibition at 40.0143 g/ha: 0.0357 lb/A; for inhibition at 200.072 g/ha: 0.1785 lb/A; for inhibition at 1000.92 g/ha: 0.893 lb/A
# Method in brief: as §2
# [8] = test system: Barnyardgrass; experiment: post-emergence herbicide test; settings: Echinochloa crus-galli, post-emergence, read-out: % plant inhibition; for inhibition at 7.95803 g/ha: 0.0071 lb/A; for inhibition at 40.0143 g/ha: 0.0357 lb/A; for inhibition at 200.072 g/ha: 0.1785 lb/A; for inhibition at 1000.92 g/ha: 0.893 lb/A
# Method in brief: as §2
# [9] = test system: Cocklebur; experiment: post-emergence herbicide test; settings: Xanthium strumarium, post-emergence, read-out: % plant inhibition; for inhibition at 7.95803 g/ha: 0.0071 lb/A; for inhibition at 40.0143 g/ha: 0.0357 lb/A; for inhibition at 200.072 g/ha: 0.1785 lb/A; for inhibition at 1000.92 g/ha: 0.893 lb/A
# Method in brief: as §2
# [10] = test system: Bedstraw Catchweed; experiment: post-emergence herbicide test; settings: Galium aparine, post-emergence, read-out: % plant inhibition; for inhibition at 7.95803 g/ha: 0.0071 lb/A; for inhibition at 40.0143 g/ha: 0.0357 lb/A; for inhibition at 200.072 g/ha: 0.1785 lb/A; for inhibition at 1000.92 g/ha: 0.893 lb/A
# Method in brief: as §2
# [11] = test system: Prickly Sida; experiment: pre-emergence herbicide test; settings: 0.25 lb/A, read-out: % plant inhibition
# Method in brief: as §1
# [12] = test system: Prickly Sida; experiment: post-emergence herbicide test; settings: 0.25 lb/A, read-out: % plant inhibition
# Method in brief: as §2
# [13] = test system: Black Nightshade; experiment: post-emergence herbicide test; settings: Solanum nigrum, 0.25 lb/A, read-out: % plant inhibition
# Method in brief: as §2
# [14] = test system: Sicklepod; experiment: post-emergence herbicide test; settings: Senna obtusifolia, 0.25 lb/A, read-out: % plant inhibition
# Method in brief: as §2
# [15] = test system: Hemp Sesbania; experiment: post-emergence herbicide test; settings: 0.25 lb/A, read-out: % plant inhibition
# Method in brief: as §2
Compound,inhibition at 280.212 g/ha [2] [%],inhibition at 7.95803 g/ha [6] [%],inhibition at 40.0143 g/ha [6] [%],inhibition at 200.072 g/ha [6] [%],inhibition at 1000.92 g/ha [6] [%],inhibition at 7.95803 g/ha [7] [%],inhibition at 40.0143 g/ha [7] [%],inhibition at 200.072 g/ha [7] [%],inhibition at 1000.92 g/ha [7] [%],inhibition at 7.95803 g/ha [8] [%],inhibition at 40.0143 g/ha [8] [%],inhibition at 200.072 g/ha [8] [%],inhibition at 1000.92 g/ha [8] [%],inhibition at 7.95803 g/ha [9] [%],inhibition at 40.0143 g/ha [9] [%],inhibition at 200.072 g/ha [9] [%],inhibition at 1000.92 g/ha [9] [%],inhibition at 7.95803 g/ha [10] [%],inhibition at 40.0143 g/ha [10] [%],inhibition at 200.072 g/ha [10] [%],further results
COc1cc(-c2nn(C)c(C(F)(F)F)c2C)c(F)cc1Cl [Compound 37],100,5,0,10,30,10,40,40,60,0,15,65,45,5,40,55,80,20,35,75,inhibition at 280.212 g/ha [1]: 100%; inhibition at 280.212 g/ha [3]: 100%; inhibition at 280.212 g/ha [4]: 100%; inhibition at 280.212 g/ha [5]: 100%; inhibition at 1000.92 g/ha [10]: 90%
Cc1c(-c2cc(OCC(=O)OC(C)C)c(Cl)cc2F)nn(C)c1C(F)(F)F [Compound 38],30,10,10,10,10,10,20,30,25,10,10,15,15,80,80,80,100,35,85,90,inhibition at 280.212 g/ha [11]: 95%; % plant inhibition [2]: 25%; inhibition at 280.212 g/ha [4]: 20%; inhibition at 280.212 g/ha [12]: 50%; inhibition at 280.212 g/ha [13]: 100%; inhibition at 280.212 g/ha ([7]; 0.25 lb/A): 15%; inhibition at 280.212 g/ha [14]: 20%; inhibition at 280.212 g/ha ([9]; 0.25 lb/A): 100%; inhibition at 280.212 g/ha [15]: 100%; inhibition at 1000.92 g/ha [10]: 85%
C#CCOc1cc(-c2nn(C)c(C(F)(F)F)c2C)c(F)cc1Cl [Compound 39],100,0,0,15,75,25,70,70,100,30,70,98,98,80,98,80,100,0,100,100,inhibition at 280.212 g/ha [1]: 100%; inhibition at 280.212 g/ha [3]: 100%; inhibition at 280.212 g/ha [5]: 100%; inhibition at 1000.92 g/ha [10]: 100%
